Paper PMC3687097 (Diabetes Therapy, 2013)
“Also recorded” adds a separate entry of the source. Where two headings read alike, the source gives them in different places.

Tests used:
[1] = for Patients reporting an adverse event: 22 patients
[2] = cited from earlier work

SMILES: CCOc1ccc(Cc2cc([C@@H]3O[C@H](CO)[C@@H](O)[C@H](O)[C@H]3O)ccc2Cl)cc1 [Dapagliflozin]
- Episodes of hypoglycemia ([1]; dapagliflozin 10 mg single oral dose, with and without voglibose): no episodes of hypoglycemia
- Patients reporting an adverse event ([1]; pharmacokinetic sampling period 1: dapagliflozin with voglibose): one patient
- Patients reporting an adverse event ([1]; pharmacokinetic sampling period 2: dapagliflozin only): three patients
- Intensity of observed AEs ([1]; whole study, dapagliflozin 10 mg with or without voglibose): mild or moderate

SMILES: OCC(CO)N[C@H]1C[C@](O)(CO)[C@@H](O)[C@H](O)[C@H]1O [Voglibose]
- Systemic / gastrointestinal absorption after oral administration [2]: poorly absorbed; also recorded: minimal systemic absorption
